In PubChem BioAssay (NCI) one finds GI50, TGI and outcome data, which are given here for 38 compounds.

“And” between values parts separate entries of the source, which are not always exact repeats. Identical values can stand only once.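 Exposure lasted 48 hours, with cells grown in 96-well plates and compounds tested at five concentrations. At the GI50, growth is halved. Definition used: TGI = concentration required for complete inhibition of growth.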 The source made the active and inactive calls. No stated cut-off is given here; in the data, active means GI50 below about 0.43 µM; inactive means the rest.

In this assay the test system is MDA-MB-468 breast. Nature of the assay: inhibition of tumour cell growth, NCI panel, 48 h.
For `CSc1c(C2=C(c3cn(C)c4ccccc34)C(=O)NC2=O)c2ccccc2n1C`, the GI50 was 562 nM and the TGI was greater than 25000 nM.

In the case of `Cn1ccnc1C(=O)/C=C/c1ccc(NC(=O)Nc2ccccc2)cc1`, the GI50 is 11400 nM and the TGI turned out to be 27500 nM.

For `CCCCC(CCCCCC(CCCC)NCc1ccc2c(c1)OCO2)NCc1ccc2c(c1)OCO2` (stereo not given), the GI50 is 480 nM and the TGI stood at 981 nM.

For the compound `COc1ccc(/C=C2\CN(C(=O)C(Cl)Cl)C/C(=C\c3ccc(OC)cc3)C2=O)cc1`, the GI50 was 1040 nM and the TGI came out at 2740 nM.

As for `CC/C=C\C[C@H](F)C/C=C1/C(=O)C=C[C@@H]1C/C=C\CCCC(=O)OC`, the GI50 was 5260 nM and the TGI stood at 17200 nM.

For the compound `O=C(CC1(O)C(=O)N(Cc2ccccc2)c2ccc(Cl)cc21)c1ccc(C(=O)NCC2CCC3(CC2)OOC2(CCCCC2)OO3)cc1` (stereo not given), the GI50 is 1270 nM and the TGI turned out to be 4260 nM.

With `CC(=O)/C(=C/c1ccccc1)C(=O)CC(C)C`, the GI50 is 11100 nM and the TGI was found to be 28000 nM.

With `Oc1ccc(Nc2ccc3ccccc3c2)cc1`, the GI50 is 8050 nM and the TGI was 26700 nM.

`COc1cc(OC)cc(-c2ccc(-c3ccc(C(=N)N)cn3)o2)c1`: the GI50 was 1510 nM and the TGI came to 3100 nM.

On to `Cc1c(-c2ccc(C3CCCCC3)cc2)nc2ccc(F)cc2c1C(=O)O`, for which the GI50 was 19100 nM and the TGI was greater than 100000 nM.

Turning to `COc1ccc2c(c1)c(-c1nc(-c3c[nH]c4ncccc34)cs1)cn2CCCN1CCCCC1`, the GI50 is 1860 nM and the TGI is 3560 nM.

Consider `COc1cc(C2CC(c3cccc(Nc4ccnc5cc(Cl)ccc45)c3)=NN2c2ccc(Cl)cc2)cc(OC)c1OC` (stereo not given), for which the GI50 is 6290 nM and the TGI was greater than 100000 nM.

On to `CCCc1n(Cc2ccc3ccccc3c2)cc[n+]1Cc1ccc2ccccc2c1`, for which the GI50 is 277 nM and the TGI turned out to be 980 nM.

As to `Nc1c(C(=O)Nc2ccccc2)sc2nc3c(cc12)CCCCC3`, the GI50 was 254 nM and the TGI was 946 nM.

Take `COc1ccc(C=Nc2c(C(=O)Nc3cccc(Cl)c3C)sc3nc(C)c(C(=O)/C=C/c4ccc(OC)cc4)cc23)cc1`: the GI50 is 200 nM and the TGI came to 2200 nM.

For `CC1CCN(Cc2ccc(NC(=O)c3cc4ccc5cccnc5c4[nH]3)cc2)CC1`, the GI50 was 2610 nM and the TGI is 16300 nM.

For the compound `C=C1C(=O)O[C@H]2[C@H]1CC/C(COC(=O)NCc1c[nH]c3ccccc13)=C\CC[C@@]1(C)O[C@@H]21`, the GI50 was 820 nM and the TGI worked out at 3580 nM.

For the compound `CCCCOC(=O)c1ccc(N)cc1`, the GI50 is 84600 nM and the TGI was greater than 100000 nM.

In the case of `Cc1ccc(Nc2nccc(N(C)c3ccc4c(C)n(C)nc4c3)n2)cc1S(N)(=O)=O`, the GI50 is 1770 nM and 2370 nM and 2200 nM; the TGI was > 100000 nM and > 10000 nM and 45200 nM.

Consider `C[C@H]1/C(=C/C(=O)OCCN(C)C)CC[C@H]2[C@H]1C(=O)C[C@H]1C(C)(C)[C@@H](O)CC[C@]21C`, for which the GI50 is greater than 100000 nM and the TGI is greater than 100000 nM.

As for `O=C1/C=C/[C@@H](O)[C@@H]2C[C@@H](O)C[C@H]2/C=C/CCC[C@H](CCc2cccc3ccccc23)O1`, the GI50 was 25.3 nM and the TGI was 86.7 nM.

For `C=C1CC2(CC(c3ccccc3Cl)OC(c3ccccc3Cl)C2)OC1=O` (stereo not given), the GI50 was 1750 nM and the TGI came to 3430 nM.

For the compound `NC(=NCc1ccccc1)C(N=Nc1ccccc1)C(=O)NCc1ccccc1` (stereo not given), the GI50 was 11500 nM and the TGI worked out at 26400 nM.

Turning to `COc1cc2c(c(OC)c1OC)-c1ccc(O)cc1[C@@H](NC(C)=O)CC2`, the GI50 is 24.4 nM and the TGI is 68.4 nM.

Consider `CN(C)CCCN(CCC1CCCCC1)CCC1CCCCC1`, for which the GI50 was 1460 nM and the TGI was 3070 nM.

As for `O=c1oc2ccc(I)cc2c(=O)n1-c1ccc(F)cc1F`, the GI50 is 2230 nM and the TGI worked out at 5690 nM.

For `O=C(CCl)NCCNc1nccc(Nc2ccc(S(=O)(=O)Nc3ccccn3)cc2)n1`, the GI50 was 1050 nM and the TGI came to 4530 nM.

Turning to `CCCCCCCCCCCCCCCCCc1nccn1CCOCCO`, the result was inactive.

As for `O=S(=O)(CCN1CCOCC1)Nc1cc(-c2ccc3ncnc(Nc4ccc(F)c(Cl)c4)c3c2)cnc1Cl`, the GI50 was 198 nM and the TGI turned out to be 1560 nM.

Regarding `Cn1c(=O)c(Oc2ccc(F)cc2F)cc2cnc(NC(C)(C)CO)nc21`, the GI50 was greater than 25000 nM and the TGI is greater than 25000 nM.

Take `CCCCN1CCCC[C@@H]1C(=O)N[C@H](C(=O)N(C)[C@H](C[C@@H](OC(C)=O)c1nc(C(=O)NC2CCC(C(=O)OC)CC2)cs1)C(C)C)C(C)C` (stereo not given in full): the GI50 is 707 nM and the TGI worked out at 8180 nM.

For `CC(C)(C)Nc1nc2c(OCCc3ccccc3)cccn2c1-c1cccc(Oc2ccccc2)c1`, the GI50 was 2200 nM and the TGI came out at 6750 nM.

For `CCCCCCCCCCCCCCCC1=NCCN1`, the GI50 was 2220 nM and the TGI turned out to be 4070 nM.

For the compound `CCN1CCC(Nc2ccnc3cc(Cl)ccc23)CC1`, the GI50 is 13300 nM and the TGI came out at 32000 nM.

For `O=C(O)[C@H](Cc1c[nH]c2ccccc12)N1C(=O)c2ccccc2C1=O`, the GI50 is greater than 100000 nM and the TGI was greater than 100000 nM.

For the compound `COC1C(O)CC(OC2CC(OC3CC(O[C@@H]4C(=O)c5c(cc6cc(OC7CC(OC8CC(O)C(O)C(C)O8)C(O)C(C)O7)c(C)c(O)c6c5O)CC4[C@H](OC)C(=O)O)OC(C)C3O)OC(C)C2O)OC1C` (stereo not given in full), the GI50 was 2590 nM and the TGI worked out at 12400 nM.

Take `O=C1/C(=C/c2ccccc2)CN(C(=O)C(Cl)Cl)C/C1=C\c1ccccc1`: the GI50 is 342 nM and the TGI worked out at 1380 nM.

As to `Cc1ccc2oc(=O)cc(/C(=C3/C=CC=N3)c3ccc[nH]3)c2c1`, the GI50 was 243 nM and the TGI turned out to be 1020 nM.
